Experimental findings from patent US10231985B2, “Compounds and compositions comprising such compounds for the prevention or treatment of dyslipidaemias” (CENTRE NATIONAL DE LA RECHERCHE SCIENTIFIQUE, priority 2013, dated 2019) are described below.

For experiment [1], the system named is hem1Δ yeasts grown under SFA accumulation conditions. The experiment is described as follows: Restoration of growth of lipointoxicated hem1Δ yeast. Conditions: after 3 days, increasing concentrations. The experiment is classed as cell-based, Saccharomyces cerevisiae. On the procedure: The strain bearing the hem1Δ mutation is grown, under aerobic conditions, with shaking and at 28° C., in liquid YPG^A medium (YPG (1% yeast extract (w/v), 1% peptone (w/v) and 2% glucose (w/v)) supplemented with 80 μg/ml 6-aminolevulinic acid (ALA)). Lipointoxication by saturated fatty acids (SFA) is caused by depletion of unsaturated fatty acids (UFA), the synthesis of which is dependent on the presence of heme (the prosthetic group of the Ole1p enzyme in particular), by transfer to YPG^+ medium (YPG supplemented with 80 μg/ml ergosterol to compensate for the sterol depletion obtained under this condition). Lipointoxication can be induced on solid YPG^+ medium+2% agar (w/v) by transferring 3500 cells (hem1Δ from preculture in YPG^A) per cm^2 or, alternatively, in liquid medium by inoculating 2×10^6 cells/ml YPG^+. Classically, the effects of SFA lipointoxication are analyzed 7 hours after the transfer to YPG^+ medium. The ability of a compound to counter the deleterious effects of SFA lipointoxication, in turn, is evaluated successively to the addition of this compound on (or in) the YPG^+ transfer medium, after seeding with the cells.
Following the induction of SFA lipointoxication (for hem1Δ grown on solid medium) 5 μl drops of solutions of the various compounds at 10 mM in dimethylsulfoxide (DMSO) or ethanol (EtOH) are deposited on the surface of the agar. The ability of a compound to counter the arrest of lipid-induced cell growth is estimated by the appearance of a halo of hem1Δ colonies at the site of the deposition of said compound after 3 days of culture at 28° C. (see Deguil et al., 2011).
Jointly with the induction of SFA lipointoxication (for hem1Δ in liquid medium), the various compounds are added to the cultures at an initial concentration of 200 μM. Proliferation is monitored by spectrometric measurement of cell density, at regular time intervals (every hour over the duration of the observation). At a wavelength of 600 nm, one optical density unit (OD600 nm) corresponds to 2×10^7 cells/ml.

The test system of experiment [2] is unfolded protein response (UPR). The experiment is described as follows: Test of UPR triggering (4xUPRE-lacZ, β-galactosidase activity) in hem1Δ yeast. The class given is cell-based, Saccharomyces cerevisiae. Particulars: 200 μM, liquid medium inducing SFA accumulation. From the text:
A plasmid construction bearing a fusion gene, corresponding to the coding sequence of the lacZ gene placed under the control of an artificial promoter containing four UPR elements (UPRE), was introduced into a hem1Δ yeast strain, as described by Pineau et al. (2009). During UPR induction, the transcription factor Hac1p/XBP1p is activated and binds to the fusion gene UPRE, leading to the transcription of the lacZ gene. As lacZ encodes β-galactosidase, the level of UPR induction is thus measured by detecting the corresponding enzyme activity. The hem1Δ yeast strain was grown in liquid medium inducing SFA accumulation with no other addition (0), or in the same medium supplemented with 200 μM oleic acid, OAG or LPA, as indicated.
The hem1Δ strain transformed by the plasmid pPW344 [2μ URA3 4×UPRE-lacZ (Patil et al., 2004)] is grown in liquid medium (YPG^A, YPG, or YPG+200 μM compound to be tested), under aerobic conditions, with shaking at 28° C. for 7 hours, from an initial cell concentration of 2×10^6 cells/ml. At the conclusion of the culture, 10^8 cells are collected in order to quantify the β-galactosidase (β-gal) activity resulting from the expression of the lacZ transgene (in the case of UPR activation). […] For each sample, β-gal activity (U) is calculated using the formula U=(1000×[OD420 nm−(1.75×OD550 nm)])/(t×V×OD600 nm), expressed in arbitrary units.

Regarding `CCCCCCCC/C=C\CCCCCCCC(=O)OC[C@H](CO)OC(C)=O` [OAG, 1-oleoyl-2-acetyl-sn-glycerol], the “Restoration of the growth of hem1Δ yeasts” value in experiment [1] was “restore the growth”. Further, the “UPR induction level (β-galactosidase activity)” value in experiment [2] is “reduce the unfolded protein response (UPR)”.

In the case of `CCCCCCCC/C=C\CCCCCCCC(=O)OC[C@@H](O)COP(=O)(O)O` [LPA, 1-oleoyl-sn-glycerol-3-phosphate], the “Restoration of the growth of hem1Δ yeasts” value in experiment [1] is on record as “restore the growth”. For the same compound, in experiment [2], the “UPR induction level (β-galactosidase activity)” value is on record as “reduce the unfolded protein response (UPR)”.
